Test systems include A549 NSCLC; RPMI-8226 leukemia; SK-MEL-5 melanoma; MCF7 breast; A498 renal; T-47D breast; HT29 colon; SF-539 CNS; OVCAR-8 ovarian; HCC-2998 colon.
Holding throughout (test): NCI anticancer screen, dose series, 48 h

“And” between values parts separate entries of the source, which are not always exact repeats. Equal entries are not always repeated.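 Exposure lasted 48 hours, with cells grown in 96-well plates and compounds tested at five concentrations. At the GI50, growth is halved. At the TGI there is no net growth.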 Where a SMILES comes first, the peptide text is derived from it. The star is where a group is joined. Trt = c1ccc(C(c2ccccc2)(c2ccccc2)*)cc1; Cbz = O=C(OCc1ccccc1)*

With `O=C(CCCCCCCCC(=O)N/N=C\c1cc(Cl)ccc1O)N/N=C\c1cc(Cl)ccc1O`, the GI50 is 0.98 µM in the experiment on A549 NSCLC; 0.847 µM in the experiment with RPMI-8226 leukemia; 0.161 µM in the experiment with SK-MEL-5 melanoma; 0.364 µM in the experiment with MCF7 breast; over 33.1 µM in the experiment with A498 renal; 1.48 µM in the experiment with T-47D breast. Also, the GI50 in the experiment on HT29 colon was over 25.5 µM; in the experiment with SF-539 CNS, 0.339 µM; with OVCAR-8 ovarian it was 0.231 µM; in the experiment with HCC-2998 colon, 3.32 µM. Also, the TGI in the experiment with A549 NSCLC is over 100 µM; in the experiment on RPMI-8226 leukemia, over 100 µM; in the experiment on SK-MEL-5 melanoma it was 0.659 µM; with MCF7 breast, over 100 µM; in the experiment on A498 renal, over 80.9 µM; in the experiment on T-47D breast, over 100 µM. The TGI in the experiment with HT29 colon is over 100 µM; in the experiment on SF-539 CNS, over 46.8 µM; with OVCAR-8 ovarian it was 28.9 µM; in the experiment on HCC-2998 colon, over 100 µM.

Consider `CC(N1CCOCC1)C(O)(c1ccccc1)c1ccccn1` (centres undefined), for which the TGI in the experiment on A549 NSCLC, in the experiment with RPMI-8226 leukemia, with SK-MEL-5 melanoma, with MCF7 breast, in the experiment with A498 renal and in the experiment with T-47D breast was over 100 µM each time. The TGI in the experiment with HT29 colon is over 100 µM; in the experiment with SF-539 CNS, over 100 µM; with OVCAR-8 ovarian, over 100 µM; in the experiment with HCC-2998 colon it was 38.9 µM.

`O=C(NOCCO)c1cc(CN2OCCCC2=O)c(F)c(F)c1Nc1ccc(I)cc1F`: the GI50 with A549 NSCLC was 0.464 µM and 0.156 µM; in the experiment with RPMI-8226 leukemia, 21.7 µM and > 5.14 µM; in the experiment with SK-MEL-5 melanoma, 0.597 µM; with MCF7 breast, 28.8 µM and > 10 µM; with A498 renal it was < 0.01 µM and 0.00948 µM; with T-47D breast, 29.4 µM and > 10 µM. For the same molecule, the GI50 in the experiment with HT29 colon was < 0.01 µM and 0.0029 µM; in the experiment on SF-539 CNS it was 8.61 µM and > 10 µM; in the experiment with OVCAR-8 ovarian, 12.6 µM and > 7.77 µM; in the experiment on HCC-2998 colon it was < 0.0111 µM and 0.00172 µM. For the same molecule, the TGI is over 86.2 µM with A549 NSCLC; over 84.4 µM in the experiment on RPMI-8226 leukemia; 23.9 µM and > 10 µM in the experiment with SK-MEL-5 melanoma; over 100 µM in the experiment with MCF7 breast; 0.0355 µM and 0.115 µM in the experiment with A498 renal; over 100 µM in the experiment with T-47D breast. For the same molecule, the TGI in the experiment on HT29 colon was over 42.7 µM; in the experiment on SF-539 CNS, 66 µM and > 10 µM; with OVCAR-8 ovarian, over 100 µM.

In the case of `CCCN1CCC=C(c2ccc(Nc3nc(Nc4ccccc4C(N)=O)c4cc[nH]c4n3)c(C)c2)C1`, the GI50 is 1.89 µM in the experiment with A549 NSCLC; 5.53 µM in the experiment with RPMI-8226 leukemia; 13.2 µM in the experiment on SK-MEL-5 melanoma; 0.289 µM in the experiment with MCF7 breast; 11.1 µM in the experiment on A498 renal; over 18.3 µM in the experiment with T-47D breast. Besides, the GI50 in the experiment with HT29 colon is 0.407 µM; with SF-539 CNS it was 17.9 µM; in the experiment with OVCAR-8 ovarian, 10.1 µM; in the experiment on HCC-2998 colon, 5.7 µM. The TGI in the experiment with A549 NSCLC is over 25 µM; in the experiment on RPMI-8226 leukemia it was over 21.7 µM; with SK-MEL-5 melanoma, over 25 µM; in the experiment on MCF7 breast, over 25 µM; with A498 renal it was over 25 µM; in the experiment with T-47D breast, over 25 µM. Besides, the TGI in the experiment with HT29 colon was over 13.2 µM; in the experiment with SF-539 CNS, over 25 µM; with OVCAR-8 ovarian it was over 25 µM; in the experiment on HCC-2998 colon, over 25 µM.

For the molecule `Cc1cc(Nc2nc(-c3ccncc3)nc3ccccc23)n[nH]1`, the GI50 in the experiment with A549 NSCLC is 3.59 µM; in the experiment with RPMI-8226 leukemia, over 100 µM; in the experiment on SK-MEL-5 melanoma it was 52.6 µM; with MCF7 breast, 8.18 µM; in the experiment on A498 renal, 0.654 µM; with T-47D breast, 5 µM. Besides, the GI50 in the experiment on HT29 colon is 2.88 µM; in the experiment on SF-539 CNS it was 3.83 µM; with OVCAR-8 ovarian, 11 µM; with HCC-2998 colon, 29.6 µM. The TGI is over 100 µM with A549 NSCLC; over 100 µM in the experiment with RPMI-8226 leukemia; over 100 µM in the experiment on SK-MEL-5 melanoma; over 100 µM in the experiment with MCF7 breast; 6.01 µM in the experiment with A498 renal; over 100 µM in the experiment with T-47D breast. Further, the TGI in the experiment with HT29 colon, in the experiment with SF-539 CNS, with OVCAR-8 ovarian and in the experiment on HCC-2998 colon was over 100 µM each time.

Take `Nc1ccn(C2OC(C(OC3OC(CO)C(O)C(N)C3O)C(O)C(O)C(O)C(O)CO)C(N)C(O)C2O)c(=O)n1` (centres undefined): the TGI in the experiment on A549 NSCLC, in the experiment with RPMI-8226 leukemia, with SK-MEL-5 melanoma, in the experiment on MCF7 breast, in the experiment with A498 renal and in the experiment on T-47D breast was over 100 µM each time. Moreover, the TGI in the experiment with HT29 colon is over 100 µM; in the experiment with SF-539 CNS, 78.6 µM; with OVCAR-8 ovarian it was over 100 µM; in the experiment on HCC-2998 colon, 32.9 µM.

For the molecule `COc1cc(-c2cc(=O)c3c(O)c(OC)c(OC)c(OC)c3o2)cc(OC)c1OC`, the TGI is over 100 µM in the experiment on A549 NSCLC; over 100 µM in the experiment with RPMI-8226 leukemia; over 100 µM with SK-MEL-5 melanoma; over 100 µM in the experiment on MCF7 breast; 9.14 µM with A498 renal; over 74.3 µM with T-47D breast. Besides, the TGI with HT29 colon is over 100 µM; in the experiment on SF-539 CNS, over 54.9 µM; in the experiment on OVCAR-8 ovarian, over 100 µM; with HCC-2998 colon, over 100 µM.

`COC(=O)C(CSC(c1ccccc1)(c1ccccc1)c1ccccc1)NC(=O)C(CC(N)=O)NC(=O)OCc1ccccc1` (stereo not drawn) (Cbz-Asn-Cys(Trt)-OMe; configuration not given here): the GI50 is 4.38 µM in the experiment on A549 NSCLC; 2.29 µM in the experiment with RPMI-8226 leukemia; 3.23 µM with SK-MEL-5 melanoma; 4.54 µM with MCF7 breast; 3.67 µM with A498 renal; 2.13 µM in the experiment with T-47D breast. Also, the GI50 was 5.03 µM with HT29 colon, 1.68 µM in the experiment on SF-539 CNS, 3.16 µM with OVCAR-8 ovarian and 2.03 µM in the experiment with HCC-2998 colon. The TGI in the experiment with A549 NSCLC was determined as 51.7 µM; with RPMI-8226 leukemia, 5.93 µM; in the experiment with SK-MEL-5 melanoma, 14.4 µM; in the experiment with MCF7 breast, 27.4 µM; in the experiment with A498 renal it was 13.8 µM; with T-47D breast, 8.33 µM. The TGI with HT29 colon was found to be 17.2 µM; in the experiment with SF-539 CNS it was 5.49 µM; with OVCAR-8 ovarian, 17 µM; in the experiment with HCC-2998 colon, 4.82 µM.

In the case of `Cc1c(Cl)c(C)c(Cc2c(C)c(Cl)c(C)c(Cl)c2O)c(O)c1Cl`, the GI50 with A549 NSCLC was 4.07 µM; with RPMI-8226 leukemia it was 1.18 µM; with SK-MEL-5 melanoma, 1.28 µM; in the experiment on MCF7 breast it was 2.14 µM; in the experiment with A498 renal, 2.04 µM; in the experiment on T-47D breast, 2.11 µM. The GI50 in the experiment with HT29 colon was 3.84 µM; with SF-539 CNS, 3.01 µM; with OVCAR-8 ovarian it was 3.73 µM; with HCC-2998 colon, 3.8 µM. In addition, the TGI amounted to 18.6 µM in the experiment on A549 NSCLC; 6.66 µM with RPMI-8226 leukemia; 3.33 µM in the experiment on SK-MEL-5 melanoma; 8.37 µM in the experiment on MCF7 breast; 6.35 µM with A498 renal; 8.76 µM with T-47D breast. The TGI in the experiment on HT29 colon turned out to be 12.7 µM; in the experiment with SF-539 CNS, 11.4 µM; in the experiment on OVCAR-8 ovarian it was 21.6 µM; with HCC-2998 colon, 11.6 µM.

For the origin of these results see PubChem BioAssay (NCI).
